According to PubChem BioAssay (NCI):
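Assay format: 96-well plates, 48-hour exposure. At the GI50, growth is halved. At the TGI there is no net growth.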

Tests used:
Experiment in all cases: NCI-60 cell line screen, 48 h
786-0 renal = tested on: 786-0 renal
A498 renal = tested on: A498 renal
K-562 leukemia = tested on: K-562 leukemia
MCF7 breast = tested on: MCF7 breast
NCI-H460 lung = tested on: NCI-H460 lung
OVCAR-8 ovarian = tested on: OVCAR-8 ovarian
SNB-75 CNS = tested on: SNB-75 CNS
SR leukemia = tested on: SR leukemia
U251 CNS = tested on: U251 CNS
HOP-92 NSCLC = tested on: HOP-92 NSCLC

Structure (SMILES)	TGI (786-0 renal)	TGI (A498 renal)	TGI (K-562 leukemia)	TGI (MCF7 breast)	TGI (NCI-H460 lung)	TGI (OVCAR-8 ovarian)	TGI (SNB-75 CNS)	TGI (SR leukemia)	TGI (U251 CNS)	GI50 (786-0 renal)	GI50 (A498 renal)	GI50 (HOP-92 NSCLC)	TGI (HOP-92 NSCLC)	GI50 (K-562 leukemia)	GI50 (MCF7 breast)	GI50 (NCI-H460 lung)	GI50 (OVCAR-8 ovarian)	GI50 (SNB-75 CNS)	GI50 (SR leukemia)	GI50 (U251 CNS)
Cc1ccc(S(=O)(=O)NC(=O)NC2=NC(C)(C)N(c3ccc(Cl)c(Cl)c3)C(N)=N2)cc1	> 100 µM	> 100 µM	> 100 µM	> 100 µM	> 100 µM	> 100 µM	> 100 µM	> 100 µM	> 100 µM											
COc1ccc(/C=C(/c2ccccc2)[N+](=O)[O-])cc1	2.96 µM	2.24 µM	> 100 µM	2.68 µM	4.16 µM	6.3 µM	2.44 µM	6.95 µM	3.21 µM	1.58 µM	1.01 µM	1.08 µM	2.48 µM	0.393 µM	0.567 µM	2.04 µM	2.08 µM	1.16 µM	0.464 µM	1.61 µM
COc1ccc2c(Oc3ccc(NC(=O)c4c(C)n(CC(C)(C)O)n(-c5ccccc5)c4=O)nc3)ccnc2c1	> 100 µM	85.1 µM	20 µM	97.7 µM	> 100 µM	> 100 µM	71.1 µM	> 100 µM	> 100 µM	22.3 µM	4.41 µM	1.79 µM	16.7 µM	2.77 µM	26.2 µM	13.6 µM	9.48 µM	5.53 µM	8.57 µM	13.1 µM
